For data set [1], the system named is convulsions induced by bicuculline in mice. Kind of data set: Anti-convulsant activity against bicuculline-induced convulsions (protection against tonic extension). The format is in vivo, mice (CDl-Charles River). Particulars: for potency compared with reference (in words): ED50 comparison, bicuculline test; for ED50: Mus musculus, 3 h, read-out: ED50 (dose providing protection against tonic extension of 50% of the animals); for % of protection (against tonic extension): 10 mg/kg, 20 mice. Here is the method:
The compounds tested, 2-pentanoylaminoacetic acid (compound I), sodium 2-pentanoylaminoacetate (compound II) or sodium valproate (a generally accepted reference substance), have been administered orally to 20 mice (CDl-Charles River) at a dose of 10 mg/kg as a suspension in a 1% tragacanth gum mucilage. Administration has been done by means of an intragastric tube.
Three hours later, bicuculline has been administered at a dose of 0,7 mg/kg by intravenous injection in the lateral vein of the tail.
The anti-convulsant activity of the compounds has been further evaluated, using the technique described hereinabove, by examining the effect at different doses. From the experimental data, the ED50 value has been calculated, i.e. the effective dose (mg/kg) providing protection against tonic extension of 50% of the animals.

Data set [2] is described as follows: in vivo. Particulars: mouse, in vivo, po. An excerpt:
(§1) In further pharmacological tests the acute toxicity and the effect on behaviour have been examined. The effect on behaviour has been studied using a method derived from the one of S. Irvin [Gordon Res. Conf. on Medicinal Chemistry, p. 1933 (1959) as cited by R. A. Turner (Screening Methods in Pharmacology, Acad. Press, 1965, Chapter III, pages 22-34)].
(§2) No further testing has been made when a dose has been reached at which no abnormal behaviour or toxicity has been observed. […] The deaths were registered for 14 days following the treatment.

The test system of data set [3] is mice. Description: in vivo. Particulars: oral, mice.
Description: as §1, §2

Data set [4] is described as follows: in vivo. Particulars: mouse, in vivo, po.
Description: as §1, §2
(§3) The LD50 value, i.e. the dose expressed in mg/kg which is lethal for 50% of the animals, has been calculated according to the Litchfield and Wilcoxon method [J. Pharmacol. Exp. Ther., 96, 99 (1949)].
This is another data set of the same source.

The subject of data set [5] is mice. Description: in vivo. Particulars: mice; for deaths: 3000 mg/kg per os.
Description: as §1, §2, §3

Where [6] appears, read: oral, bicuculline 0,7 mg/kg i.v. three hours later.
Setting [7] is: oral, different doses, bicuculline 0,7 mg/kg i.v. three hours later, mice.

Like-named read-outs stand apart in the source and are kept apart here.

As usually defined, the ED50 is the midpoint of the dose-response relation. For orientation: LD50 means the dose expected to kill half of the subjects tested. Lower therefore signals greater toxicity.

With `CCCCC(=O)NCC(=O)[O-].[Na+]`, the “potency compared with reference (in words)” value in data set [1] (mice) is listed as “more potent”. Further, the median effective dose (ED50) in data set [1] (po) came to 9.2 mg/kg. The “% of protection (against tonic extension)” value (from here on “% of protection”) in data set [1] (setting [6]) turned out to be 55%. Also, the MTD at 336 h in the data set “in vivo [2]” was not below 3000 mg/kg. For the same molecule, in the data set on mice [3], the “toxicity and effect on behaviour (in words)” value is on record as “very weak”. In addition, the “TI-B (MTD/ED50)” value in the data set on mice [3] (therapeutical index) is more than 326. In “in vivo [4]”, this molecule had an LD50 at 336 h of more than 3000 mg/kg. The deaths entry with mice [5] was “no deaths”. Besides, the “TI-A (LD50/ED50)” value in the data set on mice [5] (therapeutical index, oral) is more than 326.

Turning to `CCCCC(=O)NCC(=O)O` [compound I, 2-pentanoylaminoacetic acid], the “potency compared with reference (in words)” value in data set [1] (mice) is “more potent”. In addition, in data set [1] (setting [7]), the 50% effective dose (ED50) amounted to 10.7 mg/kg. In addition, in data set [1] (convulsions induced by bicuculline in mice), the “anti-convulsant activity (in words)” value was “potent anti-convulsant activity”. The “% of protection” value in data set [1] (setting [6]) worked out at 55%. Further, the MTD at 336 h in “in vivo [2]” is not below 3000 mg/kg. Also, the selectivity ratio in the data set “in vivo [2]” (TI-B (MTD/ED50), therapeutical index, mice) was more than 280. In addition, the “toxicity and effect on behaviour (in words)” value with mice [3] is “very weak”. The same molecule gave an LD50 at 336 h in “in vivo [4]” of more than 3000 mg/kg. The deaths result with mice [5] is on record as “no deaths”.

Regarding `CCCC(CCC)C(=O)[O-].[Na+]` [sodium valproate, reference compound], the ED50 in data set [1] (setting [7]) worked out at 29 mg/kg. The “% of protection” value in data set [1] (setting [6]) is recorded as 40%.
